The text below walks through data of patent publication US20210371463A1, “Modified Netrin-1 Peptides and Compositions for Cardioprotection” (The Regents of the University of California, priority 2018, published 2021).

Bridge positions count the residues as written; N and C are the ends. Ends that are not written are not given here. mini‑PEG = diethylene glycol

This assay has as its system mouse hearts subjected to ischemia/reperfusion (I/R) injury. Description: Langendorff perfusion ischemia/reperfusion (I/R) injury, infarct size analysis (TTC staining). The note with it: for % MI Reduction: vs. I/R Control; for Infarct size: fragments of prior art peptides, Control I/R 37.6±1.3%, Mean±SEM, p<0.001; for % Improvement in MI Reduction: modified peptide vs. closest prior art peptide (V1-9aa, V2-10aa or V3-11aa). Also noted: % MI Reduction: concentration or dose not given beside the values. As to the method: Male C57BL/6J mice (8-12 weeks old) were obtained from the Charles River Laboratories (Wilmington, Mass., USA). After anesthetized with intraperitoneal pentobarbitone (60 mg/kg), mouse hearts were harvested immediately and the aortas were cannulated with a 20-gauge stainless steel blunt needle and transferred to the Langendorff rig and perfused retrograde instantly with modified Krebs-Henseleit buffer (KHB) for 30 minutes as previously described. See Bouhidel et al. Front Biosci (Landmark Ed) 2014; 19:566-570, and Zhang et al., J Mol Cell Cardiol. 2010; 48:1060-1070. Then hearts were pre-perfused for 45 minutes with or without netrin-1 (100 ng/ml), or different peptide fragments at the same molar concentration 1.47 nmol/L as netrin-1, prior to being subjected to ischemia/reperfusion (I/R) injury (a 20-minute global ischemia followed by a 60-minute reperfusion with or without netrin-1 or different peptide fragments). Hearts were then harvested for analyses of infarct size. For post-conditioning treatment with peptide fragments, hearts underwent 40 minutes of KHB perfusion, 20 minutes of global ischemia, and a 60-minute reperfusion with different peptide fragments.
At the end of I/R protocol, hearts were sliced perpendicular to the long-axis of the heart at 1 mm intervals and stained with 1% triphenyl tetrazolium chloride (TTC) in PBS for 10 minutes at room temperature. After washing with PBS once, sections of the hearts will be fixed in 10% formalin overnight. The heart slices were then digitally photographed for planimetry using NIH Image 1.62. Infarct size is expressed as an infarct-to-risk zone ratio (the risk zone is the whole ventricular volume in this global ischemic model).
Densitometric data of western blotting was obtained by software Image J. Grouped data was analyzed by software Gradpad Prism δ. All values are expressed as Mean±SEM. Comparisons of more than two groups were performed using a one way ANOVA analysis with Newman-Keuls test as a post-hoc test. Statistical significance is set as p<0.05.

Setting [1] is: Table 2, modified netrin-1 peptides, I/R Control 43.1625, p < 0.001 vs. Control.
[2] abbreviates: Table 2, modified netrin-1 peptides.
The mark [3] stands for this setting: Table 1, prior art peptides, I/R Control 37.6.

“(mini-PEG)-CPCKDGVTIGIT ({mini‑PEG}-CPCKDGVTIGIT; cysteine pairing not given here) [V3P]”: under setting [1], the “Infarct Size Mean (%)” value is listed as 12.9700%. Under setting [2], the “% MI Reduction” value was determined as 70%.

In turn, “CLNCRHNTAG (Peptide based on human Netrin-1 sequence) [V2-10aa, reference compound]” came in with an Infarct size of 18.6±1.7%. Further, the “Infarct Size Mean (%)” value under setting [3] is on record as 18.6%. Further, where the note is “Table 1, prior art peptides”, the “% MI Reduction” value was determined as 51%.

For the substance “(mini-PEG)-CLNCRHNTAG ({mini‑PEG}-CLNCRHNTAG; cysteine pairing not given here) [V2P]”, the “% Improvement in MI Reduction” value is “(58 − 51)/51 = 14%”. Besides, the “Infarct Size Mean (%)” value under setting [1] was 18.3315%. The “% MI Reduction” value under setting [2] worked out at 58%.

As to “SDCRHNTAG (Peptide based on human Netrin-1 sequence) [V1S]”, the “% Improvement in MI Reduction” value is “(71 − 55)/55 = 29%”. Besides, the “Infarct Size Mean (%)” value under setting [1] is given as 12.7750%. Also, under setting [2], the “% MI Reduction” value was determined as 71%.

In turn, “CPCKDGVTGIT (Peptide based on human Netrin-1 sequence) [V3-11aa, reference compound]” showed an Infarct size of 16.7±3.0%. Further, under setting [3], the “Infarct Size Mean (%)” value came to 16.7%. In addition, where the note is “Table 1, prior art peptides”, the “% MI Reduction” value is listed as 56%.

On to “CDCRHNTAG (not fully specified (bridges); cysteine pairing not given here) [V1-9aa, reference compound]”, for which the Infarct size is given as 16.8±2.2%. Further, the “Infarct Size Mean (%)” value under setting [3] is reported as 16.8%. The “% MI Reduction” value (Table 1, prior art peptides) was determined as 55%.

On to “(mini-PEG)-CDCRHNTAG ({mini‑PEG}-CDCRHNTAG; cysteine pairing not given here) [V1P]”, for which the “% Improvement in MI Reduction” value is on record as “(77 − 55)/55 = 40%”. The “Infarct Size Mean (%)” value under setting [1] was 10.0100%. In addition, the “% MI Reduction” value under setting [2] was determined as 77%.

Regarding CDCRHNTAG (disulfide 1-3) [V1C], the “% Improvement in MI Reduction” value was “(74 − 55)/55 = 35%”. Under setting [1], the “Infarct Size Mean (%)” value was 11.2700%. Besides, the “% MI Reduction” value under setting [2] worked out at 74%.

Consider TDCRHNTAG [V1T], for which the “% Improvement in MI Reduction” value is reported as “(64 − 55)/55 = 16%”. Besides, under setting [1], the “Infarct Size Mean (%)” value is 15.4650%. In addition, the “% MI Reduction” value under setting [2] is reported as 64%.
